# Reference: ChEMBL document CHEMBL1201862, “PubChem BioAssay data set” (2004)
#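 Following 48 hours of exposure in 96-well plates, responses at five concentrations were used to interpolate endpoints linearly. Here, GI50 denotes the concentration required for 50% inhibition of growth.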 The source made the active and inactive calls. Rule as the data show it: active = GI50 up to about 1.1 µM and inactive = higher.
# Key:
# Assay in all cases: NCI anticancer screen, dose series, 48 h
# ACHN = tested on: ACHN
# CAKI-1 = tested on: CAKI-1
# CCRF-CEM = tested on: CCRF-CEM
# COLO 205 = tested on: COLO 205
# DLD-1 = tested on: DLD-1
# DMS-114 = tested on: DMS-114
# EKVX = tested on: EKVX
# HCC 2998 = tested on: HCC 2998
# HCT-116 = tested on: HCT-116
# HCT-15 = tested on: HCT-15
# HL-60 = tested on: HL-60
# HOP-18 = tested on: HOP-18
# HOP-62 = tested on: HOP-62
# HOP-92 = tested on: HOP-92
# HT-29 = tested on: HT-29
# IGROV-1 = tested on: IGROV-1
# K562 = tested on: K562
# KM-20L2 = tested on: KM-20L2
# KM12 = tested on: KM12
# LOX IMVI = tested on: LOX IMVI
# LXFL 529 = tested on: LXFL 529
# M14 = tested on: M14
# M19-MEL = tested on: M19-MEL
# MOLT-4 = tested on: MOLT-4
# Malme-3M = tested on: Malme-3M
# NCI-H226 = tested on: NCI-H226
# NCI-H23 = tested on: NCI-H23
# NCI-H460 = tested on: NCI-H460
# OVCAR-3 = tested on: OVCAR-3
# OVCAR-4 = tested on: OVCAR-4
# OVCAR-5 = tested on: OVCAR-5
# OVCAR-8 = tested on: OVCAR-8
# RXF 393 = tested on: RXF 393
# RXF 631 = tested on: RXF 631
# SF-268 = tested on: SF-268
# SF-295 = tested on: SF-295
# SK-MEL-28 = tested on: SK-MEL-28
# SK-MEL-2 = tested on: SK-MEL-2
# SK-OV-3 = tested on: SK-OV-3
# SN12C = tested on: SN12C
# SNB-19 = tested on: SNB-19
# SNB-78 = tested on: SNB-78
# SR = tested on: SR
# SW-620 = tested on: SW-620
# U-251 = tested on: U-251
# UACC-257 = tested on: UACC-257
# UACC-62 = tested on: UACC-62
# UO-31 = tested on: UO-31
# 786-0 = tested on: 786-0
# A498 = tested on: A498
# A549 = tested on: A549
# DMS-273 = tested on: DMS-273
# RPMI-8226 = tested on: RPMI-8226
# SF-539 = tested on: SF-539
# SK-MEL-5 = tested on: SK-MEL-5
# SNB-75 = tested on: SNB-75
# TK-10 = tested on: TK-10
# XF498 = tested on: XF498
# NCI-H522 = tested on: NCI-H522
smiles,measurement,setting,value
CC/C(CC(=O)CCC(=O)Nc1ccc(C)c(C)c1)=N\NC(=O)c1cc2ccccc2cc1O,GI50,ACHN,24.9 µM (inactive)
same,GI50,CAKI-1,20.8 µM (inactive)
same,GI50,CCRF-CEM,5.2 µM (inactive)
same,GI50,COLO 205,37 µM (inactive)
same,GI50,DLD-1,13.4 µM (inactive)
same,GI50,DMS-114,32.9 µM (inactive)
same,GI50,EKVX,27.5 µM (inactive)
same,GI50,HCC 2998,18.4 µM (inactive)
same,GI50,HCT-116,37.6 µM (inactive)
same,GI50,HCT-15,13.9 µM
same,GI50,HL-60,1.92 µM (inactive)
same,GI50,HOP-18,15.2 µM (inactive)
same,GI50,HOP-62,26 µM (inactive)
same,GI50,HOP-92,31.2 µM (inactive)
same,GI50,HT-29,38.5 µM (inactive)
same,GI50,IGROV-1,19 µM (inactive)
same,GI50,K562,21.8 µM (inactive)
same,GI50,KM-20L2,> 10 µM (inactive)
same,GI50,KM12,38.4 µM (inactive)
same,GI50,LOX IMVI,16.1 µM (inactive)
same,GI50,LXFL 529,21.9 µM (inactive)
same,GI50,M14,17.1 µM (inactive)
same,GI50,M19-MEL,28.8 µM (inactive)
same,GI50,MOLT-4,11.4 µM (inactive)
same,GI50,Malme-3M,24.8 µM (inactive)
same,GI50,NCI-H226,13.4 µM (inactive)
same,GI50,NCI-H23,23.6 µM (inactive)
same,GI50,NCI-H460,23.6 µM (inactive)
same,GI50,OVCAR-3,18.6 µM (inactive)
same,GI50,OVCAR-4,18.4 µM (inactive)
same,GI50,OVCAR-5,31 µM (inactive)
same,GI50,OVCAR-8,21.4 µM (inactive)
same,GI50,RXF 393,15.1 µM (inactive)
same,GI50,RXF 631,69.5 µM (inactive)
same,GI50,SF-268,22.1 µM (inactive)
same,GI50,SF-295,37.2 µM (inactive)
same,GI50,SK-MEL-28,20.7 µM (inactive)
same,GI50,SK-MEL-2,31 µM (inactive)
same,GI50,SK-OV-3,13.6 µM (inactive)
same,GI50,SN12C,28.3 µM (inactive)
same,GI50,SNB-19,39.1 µM (inactive)
same,GI50,SNB-78,48.5 µM (inactive)
same,GI50,SR,18 µM (inactive)
same,GI50,SW-620,30.2 µM (inactive)
same,GI50,U-251,28.8 µM (inactive)
same,GI50,UACC-257,45.2 µM (inactive)
same,GI50,UACC-62,14.6 µM (inactive)
same,GI50,UO-31,26 µM (inactive)
O=C(Nc1ccc([N+](=O)[O-])cc1C(=O)O)c1ccc([N+](=O)[O-])cc1,GI50,786-0,31.6 µM (inactive)
same,GI50,A498,71.9 µM (inactive)
same,GI50,A549,59.6 µM (inactive)
same,GI50,ACHN,25.3 µM (inactive)
same,GI50,CCRF-CEM,11.4 µM (inactive)
same,GI50,COLO 205,> 10 µM (inactive)
same,GI50,DLD-1,35.4 µM (inactive)
same,GI50,DMS-114,5.97 µM (inactive)
same,GI50,DMS-273,31.2 µM (inactive)
same,GI50,EKVX,> 100 µM (inactive)
same,GI50,HCC 2998,16 µM (inactive)
same,GI50,HCT-116,15.5 µM (inactive)
same,GI50,HCT-15,20.8 µM
same,GI50,HL-60,17.1 µM (inactive)
same,GI50,HOP-62,> 100 µM (inactive)
same,GI50,HOP-92,10.8 µM (inactive)
same,GI50,HT-29,29 µM (inactive)
same,GI50,IGROV-1,29.2 µM (inactive)
same,GI50,K562,15.1 µM (inactive)
same,GI50,KM-20L2,18.4 µM (inactive)
same,GI50,KM12,24.8 µM (inactive)
same,GI50,LOX IMVI,24.2 µM (inactive)
same,GI50,LXFL 529,24.4 µM (inactive)
same,GI50,M14,36.2 µM (inactive)
same,GI50,M19-MEL,61 µM (inactive)
same,GI50,MOLT-4,14.8 µM (inactive)
same,GI50,Malme-3M,32.4 µM (inactive)
same,GI50,NCI-H226,17.5 µM (inactive)
same,GI50,NCI-H460,21 µM (inactive)
same,GI50,OVCAR-3,59.6 µM (inactive)
same,GI50,OVCAR-4,27.4 µM (inactive)
same,GI50,OVCAR-5,45.8 µM (inactive)
same,GI50,OVCAR-8,32.1 µM (inactive)
same,GI50,RPMI-8226,14.4 µM (inactive)
same,GI50,RXF 631,21.1 µM (inactive)
same,GI50,SF-268,37.7 µM (inactive)
same,GI50,SF-295,> 100 µM (inactive)
same,GI50,SF-539,9.95 µM (inactive)
same,GI50,SK-MEL-28,31.1 µM (inactive)
same,GI50,SK-MEL-2,19.2 µM (inactive)
same,GI50,SK-MEL-5,51.3 µM (inactive)
same,GI50,SK-OV-3,79.3 µM (inactive)
same,GI50,SN12C,41.4 µM (inactive)
same,GI50,SNB-19,36.6 µM (inactive)
same,GI50,SNB-75,> 100 µM (inactive)
same,GI50,SW-620,46.3 µM (inactive)
same,GI50,TK-10,70.3 µM (inactive)
same,GI50,U-251,37.4 µM (inactive)
same,GI50,UACC-257,40 µM (inactive)
same,GI50,UACC-62,42.8 µM (inactive)
same,GI50,UO-31,34.3 µM (inactive)
same,GI50,XF498,23.3 µM (inactive)
O=C1c2ccccc2C(=O)c2[nH]c(Cc3ccc(F)cc3)nc21,GI50,786-0,16.9 µM (inactive)
same,GI50,A549,19.5 µM (inactive)
same,GI50,ACHN,14.2 µM (inactive)
same,GI50,CAKI-1,19.7 µM (inactive)
same,GI50,CCRF-CEM,24.6 µM (inactive)
same,GI50,COLO 205,22.1 µM (inactive)
same,GI50,DLD-1,4.01 µM (inactive)
same,GI50,DMS-114,> 10 µM (inactive)
same,GI50,DMS-273,18.1 µM (inactive)
same,GI50,EKVX,19.2 µM (inactive)
same,GI50,HCC 2998,26.2 µM (inactive)
same,GI50,HCT-116,19.5 µM (inactive)
same,GI50,HCT-15,6.44 µM
same,GI50,HL-60,17.9 µM (inactive)
same,GI50,HOP-62,21.9 µM (inactive)
same,GI50,HOP-92,19.9 µM (inactive)
same,GI50,HT-29,15.9 µM (inactive)
same,GI50,IGROV-1,12.5 µM (inactive)
same,GI50,K562,37.2 µM (inactive)
same,GI50,KM-20L2,17.1 µM (inactive)
same,GI50,KM12,16.2 µM (inactive)
same,GI50,LXFL 529,26.4 µM (inactive)
same,GI50,M14,15.3 µM (inactive)
same,GI50,M19-MEL,16.9 µM (inactive)
same,GI50,MOLT-4,24.8 µM (inactive)
same,GI50,Malme-3M,14.5 µM (inactive)
same,GI50,NCI-H226,22.8 µM (inactive)
same,GI50,NCI-H23,> 10 µM (inactive)
same,GI50,NCI-H460,15.2 µM (inactive)
same,GI50,NCI-H522,14.5 µM (inactive)
same,GI50,OVCAR-3,5.4 µM (inactive)
same,GI50,OVCAR-4,14.8 µM (inactive)
same,GI50,OVCAR-8,17.4 µM (inactive)
same,GI50,RPMI-8226,22.8 µM (inactive)
same,GI50,RXF 393,6.97 µM (inactive)
same,GI50,RXF 631,15.9 µM (inactive)
same,GI50,SF-268,21.8 µM (inactive)
same,GI50,SF-295,16.7 µM (inactive)
same,GI50,SF-539,17.8 µM (inactive)
same,GI50,SK-MEL-28,18.7 µM (inactive)
same,GI50,SK-MEL-2,13.9 µM (inactive)
same,GI50,SN12C,22 µM (inactive)
same,GI50,SNB-19,24.4 µM (inactive)
same,GI50,SNB-75,20.9 µM (inactive)
same,GI50,SR,21.6 µM (inactive)
same,GI50,SW-620,14.5 µM (inactive)
same,GI50,TK-10,34.1 µM (inactive)
same,GI50,U-251,22.6 µM (inactive)
same,GI50,UACC-257,16.3 µM (inactive)
same,GI50,UACC-62,15.5 µM (inactive)
same,GI50,UO-31,29.6 µM (inactive)
same,GI50,XF498,17.2 µM (inactive)
